Test results taken from US20140364417A1, “METHOD OF TREATING ATRIAL FIBRILLATION” (Gilead Sciences, Inc., priority 2013, published 2014).
“And” between values parts separate entries of the source, which are not always exact repeats. Identical values can stand only once. “Also recorded” adds a separate entry of the source.

Columns and labels:
male Yorkshire pigs = test: A-H, H-V, PR and QT intervals during right atrial pacing in anesthetized pigs; format: in vivo; details: for increase in PR interval: ivabradine 0.25 mg/kg, 30 min after ivabradine administration; for effect on atrial-His (A-H) interval: right atrial pacing at 180 beats/min, FIG. 6 left panel; for effect on atrial-His (A-H) interval / effect on PR interval: ivabradine 0.25 mg/kg bolus; for effect on PR interval: right atrial pacing at 180 bpm, FIG. 5 upper panel
Procedure: (§1) Data were gathered from male Yorkshire pigs (n=16) weighing 35±2 kg (mean±SEM). The animals were preanesthetized with telazol (4.7 mg/kg, intramuscularly) and then anesthetized with alpha-chloralose (100 mg/kg, i.v., bolus followed by 40 mg/kg/h, i.v., continuous infusion). The animals were intubated and ventilation was maintained between 10-16 breaths/min with volumes between 400-500 mL. Vital signs including core body temperature, heart rate, and oxygen saturation were continuously monitored.
(§2) The right and left femoral veins were cannulated with 7Fr introducer sheaths using the Seldinger technique to insert catheters in the right atrial (RA) appendage for pacing and for positioning the intrapericardial catheter. Arterial blood pressure was continuously monitored from a femoral arterial sheath, and intravenous fluids were administered through the ear vein. The electrocardiogram (ECG) was recorded with a Prucka Cardiolab workstation (GE Medical Systems, Milwaukee, Wis.) from atrial and ventricular sites.
(§3) Ranolazine was given as a 2.4 mg/kg, i.v., bolus followed by continuous infusion of 0.135 mg/kg/min, i.v.
(§4) A nonsteerable, quadripolar electrode catheter (Bard Electrophysiology, Lowell Mass.) was placed in the right atrium (RA) via the femoral vein and a second quadripolar electrode catheter in the right ventricle via the jugular vein. A bipolar electrode was placed in the non-coronary cusp of the aorta through the left carotid artery to record the His bundle electrogram. A pigtail catheter was inserted in the left ventricle via the left femoral artery to record and calculate contractility [left ventricular dP/dt]. Transatrial access was employed to deliver acetylcholine (ACh) into the pericardial space. Specifically, a small puncture was made in the RA appendage with the stiff end of a coronary angioplasty guidewire (0.014-inch Wizdom guidewire, Cordis, Miami, Fla., USA) placed within the lumen of a soft infusion catheter (0.038-inch SOS straight-tip, open-ended angiographic guidewire, Bard Electrophysiology). This wire-within-wire system was advanced as a unit into an 8Fr multipurpose guide catheter (MP2, Boston Scientific, Boston Mass.) previously positioned in the RA appendage via a femoral vein under fluoroscopic guidance and into the pericardial space. The infusion catheter was left in the pericardial space for delivery of ACh and the inner guidewire was removed. Conformation of the infusion catheter on fluoroscopy to the curvature of the heart verified its location within the pericardial space. All of the pericardial fluid was then aspirated with the infusion catheter. Intrapericardial access is associated with a hematocrit <2%, indicating minimum trauma from the atrial puncture (Kumar et al., J Cardiovasc Electrophysiol 2009; 20:796-802). The presence of acetylcholinesterase can rapidly degrade ACh and prevent a sustained response to this neurotransmitter.
The electrical stimulation protocol described below was performed in the control state and after the ivabradine bolus and after ranolazine administration and the combination of ranolazine and ivabradine. Burst pacing was performed after ACh injection into the pericardium and AF was invariably elicited. Ventricular rate during AF was determined by counting the R waves during the 6th minute of AF. Two episodes of AF separated by 10 min were induced to establish control levels.
A Bloom stimulator (Bloom Associates, Reading Pa.) was used to deliver constant-current rectangular stimuli for fixed-rate pacing as well as for delivering premature stimuli. To elicit AF, a burst pacing stimulation with a cycle length of 200 msec was performed. A-H, His-ventricular (H-V), PR and QT interval measurements were made during right atrial pacing at 130 and 180 beats/min.
The statistical tests were carried out with a SAS statistical package (SAS Institute, Cary, N.C.). […]

[1] = tested on: Acetylcholine Mediated AF Model in Pigs; test: Acetylcholine mediated AF model in pigs: dominant frequency, ventricular rate, arterial blood pressure during AF; format: in vivo, pig; details: for effect on arterial blood pressure during AF: FIG. 3 and FIG. 4; for effect on dominant frequency of atrial fibrillation / effect on ventricular rate during atrial fibrillation: ivabradine 0.25 mg/kg i.v. bolus; for effect on dominant frequency of atrial fibrillation: ranolazine 2.4 mg/kg bolus + 0.135 mg/kg/min; for effect on dominant frequency of atrial fibrillation / dominant frequency of AF after drug: FIG. 8; for effect on ventricular rate during atrial fibrillation: FIG. 9; for ventricular rate during AF after drug / reduction of ventricular rate during AF: ivabradine 0.25 mg/kg; for ventricular rate during AF after drug: before drug 269.7±6.2 (ivabradine) and 227.3±14.7 (ranolazine, combination); for dominant frequency of AF after drug: series with ivabradine 0.25 mg/kg, baseline 10.3±1.4 (ivabradine) and 9.0±0.8 (ranolazine, combination); for reduction of ventricular rate during AF: alone or shortly after ranolazine
Procedure: as §1, §2, §3, §4
Atrial fibrillation (AF) was defined as an irregular atrial rhythm with an average cycle length <150 msec at all atrial sites, whereas atrial flutter was defined as a regular atrial rhythm with fixed cycle length >150 msec at all atrial sites. After baseline electrical testing was performed, AF initiation was attempted by decremental burst pacing at each atrial site down to loss of 1:1 capture. ACh (1 mL of 100 mM solution) along with a 1-mL saline flush was injected into the pericardial space via the transatrial infusion catheter. […] After 5 minutes of AF, the pericardial space was lavaged with saline (20 mL) via the transatrial pericardial catheter. At the end of lavage, no further pericardial fluid could be removed. Lavage was performed after 5 minutes of AF in order to minimize the mild systemic hypotension that was occasionally associated with ACh administration. The time to spontaneous termination of AF was recorded.
Dominant frequency of AF was analyzed during the 6th minute after AF initiation using the intracardiac electrograms from the right atrial appendage. […]

[2] = ivabradine 0.25 mg/kg i.v., ranolazine 2.4 mg/kg bolus + 0.135 mg/kg/min, pacing 130 beats/min
[3] = larger series, ivabradine 0.25 mg/kg i.v., ranolazine 2.4 mg/kg bolus + 0.135 mg/kg/min, pacing 180 beats/min, FIG. 6
[4] = pacing 130 beats/min, ranolazine 2.4 mg/kg bolus + 0.135 mg/kg/min
[5] = pacing 180 beats/min, ranolazine 2.4 mg/kg bolus + 0.135 mg/kg/min
[6] = pacing rate 180 beats/min, FIG. 2 (first series)

Row | Compound | increase in A-H interval (male Yorkshire pigs; [2]) [ms] | increase in A-H interval (male Yorkshire pigs; [3]) [ms] | increase in PR interval (male Yorkshire pigs; [4]) [ms] | increase in PR interval (male Yorkshire pigs; [5]) [ms] | increase in A-H interval (male Yorkshire pigs; [6]) | effect on atrial-His (A-H) interval (male Yorkshire pigs) | effect on PR interval (male Yorkshire pigs) | effect on arterial blood pressure during AF [1] | effect on dominant frequency of atrial fibrillation [1] | effect on ventricular rate during atrial fibrillation [1] | ventricular rate during AF after drug [1] [beats/min] | dominant frequency of AF after drug [1] [Hz] | other results
1 | COc1ccccc1OCC(O)CN1CCN(CC(=O)Nc2c(C)cccc2C)CC1 (racemic) [ranolazine, (±)-N-(2,6-dimethylphenyl)-4-[2-hydroxy-3-(2-methoxyphenoxy)-propyl]-1-piperazineacetamide] | 2.0 ± 2.6 | 13.8 ± 3.9 | 5 ± 1.8 | 19 ± 2.8 | 18 ms and 18.4 ms | did not | increased PR interval | Neither ivabradine (FIG. 4) nor ranolazine (FIG. 3) given alone improves; also recorded: no significant improvement | neither drug alone was effective | not reduced; also recorded: did not | 197.1±17.4 | 7.8±0.9 | HV interval after drug (male Yorkshire pigs; male, Yorkshire, pig, in vivo): 35 ms; QT interval after drug (male Yorkshire pigs; male, Yorkshire, pig, in vivo): 282 ms; A-H interval after drug (male Yorkshire pigs; representative experiment FIG. 7, pacing 180 beats/min, before drug 100 msec, ranolazine, then ivabradine 0.25 mg/kg): 107 ms; PR interval after drug (male Yorkshire pigs; representative experiment FIG. 7, pacing 180 beats/min, before drug 123 msec): 131 ms; change in arterial blood pressure during AF versus control (Δ Control/drug) ([1]; FIG. 3): 3.36 mmHg
2 | COc1cc2c(cc1OC)CC(=O)N(CCCN(C)C[C@H]1Cc3cc(OC)c(OC)cc31)CC2 [ivabradine, 3-{3-[{[(7S)-3,4-dimethoxybicyclo[4.2.0]octa-1,3,5-trien-7-yl]methyll}-(methyl)amino]propyl}-7,8-dimethoxy-1,3,4,5-tetrahydro-2H-3-benzapenin-2-one] | 15.5 | 22.0 ± 3.5 | 16 ± 3.9 | 20 ± 3.5 | 31 ms and 31.2 ms | increased atrial-His (A-H) interval | increased PR interval | Neither ivabradine (FIG. 4) nor ranolazine (FIG. 3) given alone improves; also recorded: small, not significant decrease | neither drug alone was effective | lowered ventricular rate | 247.2±9.5 | 9±0.7 | effect on QT interval (male Yorkshire pigs; right atrial pacing at 130 and 180 beats/min, FIG. 5 lower panel): not altered; also recorded: neither drug nor their combination altered QT interval; effect on His-ventricular (H-V) interval (male Yorkshire pigs; right atrial pacing at 130 and 180 beats/min, FIG. 6 right panel): unchanged; also recorded: neither drug nor their combination altered His-ventricular (H-V) interval; reduction of ventricular rate during AF [1]: 9%; reduction of ventricular rate during AF ([1]; 30 min after drug infusion): 22.5±6.0 beats/min and 22.53±6.0 beats/min
